The record followed here is PubChem BioAssay AID608 (Sanford-Burnham Center for Chemical Genomics, 2007).

Molecules are shown by their SMILES. Activity calls are given as the source filed them. How the calls were made is not given here. Bounds are passed on as bounds.

The target in this test is Peptidyl-prolyl cis-trans isomerase FKBP1A (Homo sapiens) (UniProt P62942). The test can be described thus: FKBP12 binders, biophysical, NMR detection (AID 608). To be noted: NMR binding, purified FKBP12.
Peptidyl-prolyl cis-trans isomerase FKBP1A (Homo sapiens), sequence (P62942 whole entry, looked up): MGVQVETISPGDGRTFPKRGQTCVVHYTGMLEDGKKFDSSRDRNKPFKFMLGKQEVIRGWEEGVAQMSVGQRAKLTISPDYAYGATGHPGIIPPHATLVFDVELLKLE
`O=C(c1ncc[nH]1)c1ccccc1C(=O)N1CCOCC1`: the Kd is > 4 mM (inactive).
Regarding `Cn1cccc1C(=O)NS(=O)(=O)c1ccccc1Cl`, the Kd is > 4 mM (inactive).
For `NC(C(=O)O)C(O)c1ccccc1` (stereo not drawn), the Kd is > 4 mM (inactive).
As for `Cc1sc2nc(C)n(NC(N)=O)c(=O)c2c1C`, the Kd is > 4 mM (inactive).
For the compound `CN1CC(=O)Nc2ccc([N+](=O)[O-])cc2C1=O`, the Kd was > 4 mM (inactive).
On to `S=c1ccc(N2CCCCC2)n[nH]1`, for which the Kd is > 4 mM (inactive).
Take `Cc1cn(C(=O)CN2C(=O)c3ccccc3C2=O)c(C)n1`: the Kd was > 4 mM (inactive).
For the compound `O=C1CCC(=O)N1c1nc2ccccc2s1`, the Kd is > 4 mM (inactive).
For `CC(=O)Oc1cc(OC(C)=O)c2c(c1)O[C@H](c1ccc(OC(C)=O)c(OC(C)=O)c1)[C@H](OC(C)=O)C2` the value was > 4 mM (inactive); for `Clc1ccccc1OCCn1ccnc1`, > 4 mM (inactive).
For the compound `O=C1C=CC(=O)N1c1ccc(N2CCOCC2)cc1`, the Kd is > 4 mM (inactive).
For `OCC1Cc2ccccc2CN1` (stereo not drawn) the value was > 4 mM (inactive); for `COC1=CC23CCCN2CCc2cc4c(cc2C3C1O)OCO4` (stereo not drawn), > 4 mM (inactive).
Regarding `CCOCC(=O)N1CCc2ccccc21`, the Kd was > 4 mM (inactive).
In the case of `CC(=O)Nc1cccc(-c2nnc(-c3ccccc3)o2)c1`, the Kd was > 4 mM (inactive).
Regarding `Cc1onc(-c2c(F)cccc2Cl)c1C(N)=O`, the Kd was > 4 mM (inactive).
As to `COc1ccc([C@H]2COc3c(ccc(O)c3OC)C2)c(OC)c1O`, the Kd is > 4 mM (inactive).
In the case of `CC1=C(CCC(=O)O)c2cc3nc(cc4[nH]c(cc5[nH]c(cc1n2)c(C)c5C(C)O)c(C)c4C(C)O)C(C)=C3CCC(=O)O` (stereo not drawn) it was > 4 mM (inactive); in that of `CC(=O)c1cccc(N=C2NC(=O)CS2)c1`, > 4 mM (inactive).
For `O=c1c(-c2ccccc2)coc2cc(O)cc(O)c12` the value was > 4 mM (inactive).
As for `Nc1ccn(C2O[C@H](CO)[C@@H](O)[C@H]2O)c(=O)n1` (stereo partly drawn), the Kd is > 4 mM (inactive).
In the case of `CSc1ccc(C(=S)N2CCN(C)CC2)cc1` it was > 4 mM (inactive); in that of `CSc1ccc(/C=c2\sc3ncnn3c2=O)cc1`, > 4 mM (inactive); in that of `O=C1NC(=O)/C(=C/c2ccc(O)cc2)N1`, > 4 mM (inactive).
As for `CC(C)NC(=O)Cc1c(O)c2ccccc2[nH]c1=O`, the Kd is > 4 mM (inactive).
Take `COc1ccc(-c2c(O)c3c(OC)c4c(cc3oc2=O)OC(C)(C)CC4)cc1`: the Kd is > 4 mM (inactive).
For `Cc1n[nH]c(C)c1CC(=O)O`, the Kd is > 4 mM (inactive).
Turning to `O=C1CCC(=O)N1c1cccnc1`, the Kd was > 4 mM (inactive).
For `CN1CCC(N2CCOCC2)CC1`, the Kd is > 4 mM (inactive).
In the case of `CC(=O)Oc1cc2c(c(C)c1OC(C)=O)CC=C1[C@@]2(C)CC[C@@]2(C)C3C[C@](C)(C(=O)O)CC[C@]3(C)CC[C@]12C` (stereo partly drawn), the Kd is > 4 mM (inactive).
For `CC(=O)CS(=O)(=O)c1ccccc1` the value was > 4 mM (inactive); for `NC1=NC(=O)/C(=C/c2cccc([N+](=O)[O-])c2)S1`, > 4 mM (inactive).
In the case of `CN(C)C(=O)CCNS(=O)(=O)c1ccccc1`, the Kd is > 4 mM (inactive).
`Cc1nc(-c2ccccc2)sc1C(N)=O`: the Kd is > 4 mM (inactive).
Turning to `O=C(O)CCC(=O)Nc1ccccn1`, the Kd was > 4 mM (inactive).
Regarding `Nc1cccc(NC(=O)c2cccs2)c1`, the Kd was > 4 mM (inactive).
For `COC(=O)[C@@H]1OC(=O)C2OC23[C@@]1(C)CCC1[C@]2(C)C(C[C@@H](O)[C@]13C)C(C)(C)[C@H](OC(C)=O)C[C@@H]2OC(C)=O` (stereo partly drawn), the Kd is > 4 mM (inactive).
Regarding `CC(=O)c1c(C)nc(-c2ccc(F)cc2)n1O`, the Kd is > 4 mM (inactive).
On to `O=C(O)c1cccc2nsnc12`, for which the Kd was > 4 mM (inactive).
`CC(C)=CC1C(CO)C1(C)C` (stereo not drawn): the Kd is > 4 mM (inactive).
For `NC(=O)c1ccsc1NC(=O)C1=COCCO1`, the Kd was > 4 mM (inactive).
`O=C(OC[C@H]1O[C@H](OC(=O)c2cc(O)c(O)c(OC(=O)c3cc(O)c(O)c(O)c3)c2)[C@H](OC(=O)c2cc(O)c(O)c(OC(=O)c3cc(O)c(O)c(O)c3)c2)[C@@H](OC(=O)c2cc(O)c(O)c(OC(=O)c3cc(O)c(O)c(O)c3)c2)[C@@H]1OC(=O)c1cc(O)c(O)c(OC(=O)c2cc(O)c(O)c(O)c2)c1)c1cc(O)c(O)c(OC(=O)c2cc(O)c(O)c(O)c2)c1`: the Kd is > 4 mM (inactive).
For the compound `CC(=O)NC(=S)Nc1ccccc1C(N)=O`, the Kd is > 4 mM (inactive).
Consider `Nc1cccc(OC(F)(F)F)c1`, for which the Kd is > 4 mM (inactive).
With `Cc1ccc(Nc2nnns2)cc1C`, the Kd was > 4 mM (inactive).
For `CN1CCN(c2ncnc3nc[nH]c23)CC1` the value was > 4 mM (inactive).
For `CC1(C)CC(NC(=O)/C=C/C(=O)O)CC(C)(C)N1`, the Kd was > 4 mM (inactive).
For the compound `CC(O)c1nc2ccccc2[nH]1` (stereo not drawn), the Kd is > 4 mM (inactive).
As for `CNC(=O)C(=O)Nc1ccc(F)cc1`, the Kd is > 4 mM (inactive).
As for `CC(=O)NC12CC3CC(C)(C1)CC(NC(C)=O)(C3)C2`, the Kd is > 4 mM (inactive).
As to `COc1ccc(Cl)cc1-c1nc(-c2ccncc2)no1`, the Kd was > 4 mM (inactive).
As for `Cc1occc1C(=O)Nc1ccc2c(c1)OCO2`, the Kd is > 4 mM (inactive).
On to `Cc1nc2ccccc2c(=O)n1NC(=O)Nc1ccccc1`, for which the Kd was > 4 mM (inactive).
For `CC1(C)Oc2ccc(N)cc2O1` the value was > 4 mM (inactive); for `CCn1ccc(C(=O)Nc2nccs2)n1`, > 4 mM (inactive).
For `COCCn1c(N)nc2c1c(=O)[nH]c(=O)n2C` the value was > 4 mM (inactive).
For `C=CCc1ccc(OC(=O)c2ccccc2)c(OC)c1` the value was > 4 mM (inactive); for `Cc1cn2c(-c3cccnc3)nnc2s1`, > 4 mM (inactive).
`O=S1(=O)NC(=NCc2ccccc2)c2ccccc21`: the Kd was > 4 mM (inactive).
With `Oc1ccccc1-c1cc(C(F)(F)F)[nH]n1`, the Kd is > 4 mM (inactive).
With `NC(=O)C1CCN(CN2C(=O)c3ccccc3C2=O)CC1`, the Kd is > 4 mM (inactive).
Regarding `O=C(NCc1ccccc1F)c1cccs1`, the Kd is > 4 mM (inactive).
Regarding `CC(C)(C)C(=O)Nc1ncc(C(F)(F)F)cc1Cl`, the Kd was > 4 mM (inactive).
Turning to `NC(Cn1ccc(=O)c(O)c1)C(=O)O` (stereo not drawn), the Kd is > 4 mM (inactive).
With `O=c1[nH]c(O)c(C=NCc2cccs2)c(=O)[nH]1`, the Kd was > 4 mM (inactive).
As to `Cn1ncc(C(=O)O)c1-c1ccccc1`, the Kd was > 4 mM (inactive).
As for `CCCN1CCC(N2CCC(O)CC2)CC1`, the Kd is > 4 mM (inactive).
For the compound `O=C(Nc1cccc2ncccc12)c1cccnc1`, the Kd is > 4 mM (inactive).
As to `NC1=NC(=O)/C(=C\c2cccnc2)S1`, the Kd was > 4 mM (inactive).
In the case of `C[C@@H]1CC[C@@]2(OC1)OC1C(O)C3C4CC[C@H]5C[C@H](O[C@@H]6O[C@H](CO)[C@H](O[C@@H]7O[C@H](CO)[C@@H](O)[C@H](O[C@@H]8OC[C@@H](O)[C@H](O)[C@H]8O)[C@H]7O[C@@H]7O[C@H](CO)[C@H](O)[C@H](O[C@@H]8O[C@H](CO)[C@@H](O)[C@H](O)[C@H]8O)[C@H]7O)[C@H](O)[C@H]6O)[C@H](O)C[C@]5(C)C4CC[C@]3(C)C1[C@@H]2C` (stereo partly drawn) it was > 4 mM (inactive).
Turning to `Cc1cc(OC(=O)c2c(C)cc(O)cc2O)cc(O)c1C(=O)O`, the Kd is > 4 mM (inactive).
For `Cc1occc1C(=O)N1CCC2(CC1)OCCO2` the value was > 4 mM (inactive).
Regarding `CC(=O)Nc1nc(C)nc(-c2ccccc2)c1C(C)=O`, the Kd is > 4 mM (inactive).
As to `O=c1oc(-c2ccccc2)nc2c1cnn2-c1ccccc1`, the Kd is > 4 mM (inactive).
On to `O=S1(=O)CCC(NCc2ccccc2)C1` (stereo not drawn), for which the Kd is > 4 mM (inactive).
In the case of `OC(CCl)c1ccc(-n2cncn2)cc1` (stereo not drawn) it was > 4 mM (inactive); in that of `O=C(O)c1csc(-c2cccnc2)n1`, > 4 mM (inactive).
Take `O=C(NC1=NCCS1)c1ccc(Cl)s1`: the Kd was > 4 mM (inactive).
Consider `CN1CCn2c1nc(N1CCCCC1)nc2=O`, for which the Kd is > 4 mM (inactive).
In the case of `COc1ccc(NS(=O)(=O)N2CCOCC2)cc1` it was > 4 mM (inactive).
With `O=C(CS(=O)(=O)c1ccccc1)N1CCCCCC1`, the Kd was > 4 mM (inactive).
Take `CC1=C(/C=C/C(C)=C/C=C/C(C)=C/C=C/C=C(C)/C=C/C=C(C)/C=C/C(=O)[C@]2(C)C[C@@H](O)CC2(C)C)C(C)(C)C[C@H](O)C1`: the Kd is > 4 mM (inactive).
For the compound `COCC(=O)N1CCCc2ccccc21`, the Kd was > 4 mM (inactive).
For the compound `Cc1ccccc1NC(=O)/C=C\C(N)=O`, the Kd is > 4 mM (inactive).
With `S=C(c1ccc2c(c1)OCO2)N1CCCC1`, the Kd was > 4 mM (inactive).
Turning to `O=c1cnnc(SCCc2ccccc2)[nH]1`, the Kd was > 4 mM (inactive).
For `Cn1nnc2cc(C(=O)NC3=NCCS3)ccc21` the value was > 4 mM (inactive); for `COc1c(OC)c2occc2c2oc(=O)ccc12`, > 4 mM (inactive).
In the case of `O=c1c2ccccc2nc2n1CCCCN2` it was > 4 mM (inactive).
For `CC(C)c1ccc(SCC(=O)N2CCOCC2)cc1` the value was 5e-05 mM; for `Cc1ccc(NC(=O)/C=C2\SC(=O)NC2=O)cc1`, > 4 mM (inactive); for `CC(=O)Nc1cccc(N(C)S(C)(=O)=O)c1`, > 4 mM (inactive).
As to `CC(=O)Nc1ccc(N(C)C(C)=O)cc1`, the Kd was > 4 mM (inactive).

One may read the Kd as a measure of binding affinity in units of concentration.
